These results are taken from patent US10722501B2 (BAYER AKTIENGESELLSCHAFT, priority 2016, dated 2020).

By IC50 is commonly meant the point on the concentration scale where inhibition reaches its midpoint.

The assay concerns the target T1, recombinant full-length human prolyl endopeptidase (PREP) (Homo sapiens, UniProt P48147).
T1 construct: To recombinant full-length human prolyl endopeptidase (PREP, R&D-Systems, 4308-SE); purchased R&D-Systems 4308-SE
T1 sequence (P48147 1-710): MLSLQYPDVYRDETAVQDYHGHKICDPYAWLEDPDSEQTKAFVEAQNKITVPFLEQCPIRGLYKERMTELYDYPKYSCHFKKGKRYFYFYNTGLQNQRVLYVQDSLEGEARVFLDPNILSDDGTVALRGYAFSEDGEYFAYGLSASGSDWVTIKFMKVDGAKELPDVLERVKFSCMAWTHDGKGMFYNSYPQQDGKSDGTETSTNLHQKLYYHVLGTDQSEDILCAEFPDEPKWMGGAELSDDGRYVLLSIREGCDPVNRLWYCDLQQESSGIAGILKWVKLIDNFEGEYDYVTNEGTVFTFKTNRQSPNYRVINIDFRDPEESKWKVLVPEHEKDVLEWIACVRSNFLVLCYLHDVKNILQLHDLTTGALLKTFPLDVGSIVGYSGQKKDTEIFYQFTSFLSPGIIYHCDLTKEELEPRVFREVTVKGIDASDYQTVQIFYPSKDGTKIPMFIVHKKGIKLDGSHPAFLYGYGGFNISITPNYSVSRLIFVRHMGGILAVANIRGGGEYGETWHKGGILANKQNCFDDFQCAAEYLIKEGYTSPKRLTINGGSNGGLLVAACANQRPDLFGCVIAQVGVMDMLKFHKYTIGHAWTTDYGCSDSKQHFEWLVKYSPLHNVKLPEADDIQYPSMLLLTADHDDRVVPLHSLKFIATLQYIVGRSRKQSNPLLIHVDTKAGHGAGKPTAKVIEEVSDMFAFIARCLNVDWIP
The assay is described as follows: Biochemical human prolyl endopeptidase (PREP) assay with fluorescently labelled substrate. To be noted: substrate Z-Gly-Pro-AMC 50 μM, 32° C., 60 min; some as mean values from multiple independent determinations. The method, boiled down:
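Initial rates of fluorescence increase from 50 μM Z-Gly-Pro-AMC cleavage (ex 360/em 465 nm, 60 min, 32° C) give percent PREP activity versus no-compound control, and IC50 is interpolated. Enzyme used at 0.4 nM (final, example) in Tris pH 7.5 with EDTA, GSH, BSA and Brij-35; compounds span 1 nM to 30 μM.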
As to `O=C([C@@H]1CCCc2nn(CCc3ccc(F)cc3)c(=O)n21)N1C[C@@H](F)[C@@H](F)C1` [Example 344, (5S)-5-{[(3R,4S)-3,4-Difluoropyrrolidin-1-yl]carbonyl}-2-[2-(4-fluorophenyl)ethyl]-5,6,7,8-tetrahydro[1,2,4]triazolo[4,3-a]pyridin-3(2H)-one], the IC50 is 0.53 nM.

For the molecule `O=C([C@@H]1CCCc2nn(CCc3ccc(F)cc3)c(=O)n21)N1CC(F)(F)C1` [Example 345, (5S)-5-[(3,3-Difluoroazetidin-1-yl)carbonyl]-2-[2-(4-fluorophenyl)ethyl]-5,6,7,8-tetrahydro[1,2,4]triazolo[4,3-a]pyridin-3(2H)-one], the IC50 was found to be 6.4 nM.

Consider `COc1ccc(CCn2nc3n(c2=O)[C@H](C(=O)N2CCC(F)(F)C2)CCC3)cc1` [Example 346, (5S)-5-[(3,3-Difluoropyrrolidin-1-yl)carbonyl]-2-[2-(4-methoxyphenyl)ethyl]-5,6,7,8-tetrahydro[1,2,4]triazolo[4,3-a]pyridin-3(2H)-one], for which the IC50 worked out at 4.2 nM.

On to `COc1ccc(CCn2nc3n(c2=O)[C@H](C(=O)N2CC(F)C2)CCC3)cc1` [Example 347, (5S)-5-[(3-Fluoroazetidin-1-yl)carbonyl]-2-[2-(4-methoxyphenyl)ethyl]-5,6,7,8-tetrahydro[1,2,4]triazolo[4,3-a]pyridin-3(2H)-one], for which the IC50 was found to be 4.8 nM.

In the case of `O=C([C@@H]1CCCc2nn(CC3(c4cccc(Cl)n4)CC3)c(=O)n21)N1CC(F)C1` [Example 348, (5S)-2-{[1-(6-Chloropyridin-2-yl)cyclopropyl]methyl}-5-[(3-fluoroazetidin-1-yl)carbonyl]-5,6,7,8-tetrahydro[1,2,4]triazolo[4,3-a]pyridin-3(2H)-one], the IC50 turned out to be 3.8 nM.

As to `O=C([C@@H]1CCCc2nn(CC3(c4cccc(Cl)n4)CC3)c(=O)n21)N1CCC(F)(F)C1` [Example 349, (5S)-2-{[1-(6-Chloropyridin-2-yl)cyclopropyl]methyl}-5-[(3,3-difluoropyrrolidin-1-yl)carbonyl]-5,6,7,8-tetrahydro[1,2,4]triazolo[4,3-a]pyridin-3(2H)-one], the IC50 turned out to be 1.45 nM.

Consider `O=C([C@@H]1CCCc2nn(CC3(c4cccc(Cl)n4)CC3)c(=O)n21)N1CC[C@H](F)C1` [Example 350, (5S)-2-{[1-(6-Chloropyridin-2-yl)cyclopropyl]methyl}-5-{[(3S)-3-fluoropyrrolidin-1-yl]carbonyl}-5,6,7,8-tetrahydro[1,2,4]triazolo[4,3-a]pyridin-3(2H)-one], for which the IC50 is 0.35 nM.

For the molecule `O=C([C@@H]1CCCc2nn(CC3(c4ccc(F)cc4)CC3)c(=O)n21)N1CC(F)C1` [Example 351, (5S)-5-[(3-Fluoroazetidin-1-yl)carbonyl]-2-{[1-(4-fluorophenyl)cyclopropyl]methyl}-5,6,7,8-tetrahydro[1,2,4]triazolo[4,3-a]pyridin-3(2H)-one], the IC50 worked out at 1.6 nM.

Turning to `O=C([C@@H]1CCCc2nn(CC3(c4ccc(F)cc4)CC3)c(=O)n21)N1CC[C@H](F)C1` [Example 352, (5S)-2-{[1-(4-Fluorophenyl)cyclopropyl]methyl}-5-{[(3S)-3-fluoropyrrolidin-1-yl]carbonyl}-5,6,7,8-tetrahydro[1,2,4]triazolo[4,3-a]pyridin-3(2H)-one], the IC50 came to 0.32 nM.

On to `O=C([C@@H]1CCCc2nn(CC3(c4ccc(F)cc4)CC3)c(=O)n21)N1CCC(F)(F)C1` [Example 353, (5S)-5-[(3,3-Difluoropyrrolidin-1-yl)carbonyl]-2-{[1-(4-fluorophenyl)cyclopropyl]methyl}-5,6,7,8-tetrahydro[1,2,4]triazolo[4,3-a]pyridin-3(2H)-one], for which the IC50 was determined as 2.3 nM.

Regarding `Cc1ccc(C2(Cn3nc4n(c3=O)[C@H](C(=O)N3CC(O)C3)CCC4)CC2)cc1` [Example 354, (5S)-5-[(3-Hydroxyazetidin-1-yl)carbonyl]-2-{[1-(4-methylphenyl)cyclopropyl]methyl}-5,6,7,8-tetrahydro[1,2,4]triazolo[4,3-a]pyridin-3(2H)-one], the IC50 turned out to be 19 nM.

On to `Cc1ccc(C2(Cn3nc4n(c3=O)[C@H](C(=O)N3CC(F)C3)CCC4)CC2)cc1` [Example 355, (5S)-5-[(3-Fluoroazetidin-1-yl)carbonyl]-2-{[1-(4-methylphenyl)cyclopropyl]methyl}-5,6,7,8-tetrahydro[1,2,4]triazolo[4,3-a]pyridin-3(2H)-one], for which the IC50 was 1.3 nM.

Consider `O=C([C@@H]1CCCc2nn(CC3(c4ccc(C(F)(F)F)cc4)CC3)c(=O)n21)N1CC[C@H](F)C1` [Example 356, (5S)-5-{[(3S)-3-Fluoropyrrolidin-1-yl]carbonyl}-2-({1-[4-(trifluoromethyl)phenyl]cyclopropyl}methyl)-5,6,7,8-tetrahydro[1,2,4]triazolo[4,3-a]pyridin-3(2H)-one], for which the IC50 came out at 0.3 nM.

For `COc1ccc(C2(Cn3nc4n(c3=O)[C@H](C(=O)N3CC(F)C3)CCC4)CC2)cc1` [Example 357, (5S)-5-[(3-Fluoroazetidin-1-yl)carbonyl]-2-{[1-(4-methoxyphenyl)cyclopropyl]methyl}-5,6,7,8-tetrahydro[1,2,4]triazolo[4,3-a]pyridin-3(2H)-one], the concentration for half-maximal inhibition (IC50) came to 0.43 nM.

Regarding `O=C([C@@H]1CCCc2nn(CC3(c4ccc(F)cc4F)CC3)c(=O)n21)N1CC[C@H](F)C1` [Example 358], the concentration for half-maximal inhibition (IC50) amounted to 0.068 nM.

`O=C([C@@H]1CCCc2nn(CC3(c4ccc(F)cc4F)CC3)c(=O)n21)N1CCC(F)(F)C1` [Example 359, (5S)-2-{[1-(2,4-Difluorophenyl)cyclopropyl]methyl}-5-[(3,3-difluoropyrrolidin-1-yl)carbonyl]-5,6,7,8-tetrahydro[1,2,4]triazolo[4,3-a]pyridin-3(2H)-one]: the IC50 was 1.1 nM.

Consider `CCn1nc(C(F)(F)F)cc1Cn1nc2n(c1=O)[C@H](C(=O)N1CC[C@H](F)C1)CCC2` [Example 360, (5S)-2-{[1-Ethyl-3-(trifluoromethyl)-1H-pyrazol-5-yl]methyl}-5-{[(3S)-3-fluoropyrrolidin-1-yl]carbonyl}-5,6,7,8-tetrahydro[1,2,4]triazolo[4,3-a]pyridin-3(2H)-one], for which the IC50 is 0.81 nM.

With `CCn1nc(C(F)(F)F)cc1Cn1nc2n(c1=O)[C@H](C(=O)N1C[C@@H](F)[C@@H](F)C1)CCC2` [Example 361, (5S)-5-{[(3R,4S)-3,4-Difluoropyrrolidin-1-yl]carbonyl}-2-{[1-ethyl-3-(trifluoromethyl)-1H-pyrazol-5-yl]methyl}-5,6,7,8-tetrahydro[1,2,4]triazolo[4,3-a]pyridin-3(2H)-one], the IC50 was determined as 1.2 nM.

Take `CCn1nc(C(F)(F)F)cc1Cn1nc2n(c1=O)[C@H](C(=O)N1CCC(F)(F)C1)CCC2` [Example 362, (5S)-5-[(3,3-Difluoropyrrolidin-1-yl)carbonyl]-2-{[1-ethyl-3-(trifluoromethyl)-1H-pyrazol-5-yl]methyl}-5,6,7,8-tetrahydro[1,2,4]triazolo[4,3-a]pyridin-3(2H)-one]: the IC50 worked out at 1.35 nM.

Regarding `CCn1nc(C(F)(F)F)cc1Cn1nc2n(c1=O)[C@H](C(=O)N1CC(F)C1)CCC2` [Example 363, (5S)-2-{[1-Ethyl-3-(trifluoromethyl)-1H-pyrazol-5-yl]methyl}-5-[(3-fluoroazetidin-1-yl)carbonyl]-5,6,7,8-tetrahydro[1,2,4]triazolo[4,3-a]pyridin-3(2H)-one], the IC50 stood at 2.3 nM.

As to `O=C([C@@H]1CCCc2nn(Cc3csc(C(F)(F)F)n3)c(=O)n21)N1CCC(F)(F)C1` [Example 364, (5S)-5-[(3,3-Difluoropyrrolidin-1-yl)carbonyl]-2-{[2-(trifluoromethyl)-1,3-thiazol-4-yl]methyl}-5,6,7,8-tetrahydro[1,2,4]triazolo[4,3-a]pyridin-3(2H)-one], the IC50 came out at 29 nM.

`O=C([C@@H]1CCCc2nn(Cc3csc(C(F)(F)F)n3)c(=O)n21)N1CC[C@H](F)C1` [Example 365, (5S)-5-{[(3S)-3-Fluoropyrrolidin-1-yl]carbonyl}-2-{[2-(trifluoromethyl)-1,3-thiazol-4-yl]methyl}-5,6,7,8-tetrahydro[1,2,4]triazolo[4,3-a]pyridin-3(2H)-one]: the IC50 is 2.3 nM.

On to `O=C([C@@H]1CCCc2nn(Cc3csc(C(F)(F)F)n3)c(=O)n21)N1C[C@@H](F)[C@@H](F)C1` [Example 366, (5S)-5-{[(3R,4S)-3,4-Difluoropyrrolidin-1-yl]carbonyl}-2-{[2-(trifluoromethyl)-1,3-thiazol-4-yl]methyl}-5,6,7,8-tetrahydro[1,2,4]triazolo[4,3-a]pyridin-3(2H)-one], for which the IC50 was determined as 2.1 nM.

For `N#C[C@@H]1CCCN1C(=O)[C@@H]1CCCc2nn(Cc3csc(C(F)(F)F)n3)c(=O)n21` [Example 367, (2S)-1-{[(5S)-3-Oxo-2-{[2-(trifluoromethyl)-1,3-thiazol-4-yl]methyl}-2,3,5,6,7,8-hexahydro[1,2,4]triazolo[4,3-a]pyridin-5-yl]carbonyl}pyrrolidine-2-carbonitrile], the IC50 turned out to be 0.425 nM.
